From publication PMC9527238, “Glutamate and GABAA receptor crosstalk mediates homeostatic regulation of neuronal excitation in the mammalian brain” (Signal Transduction and Targeted Therapy, 2022)

Key:
Type in all cases: cell-based
αK104D,E137Gβ GABAAR = target: T1, αK104D,E137Gβ GABAAR (Rattus norvegicus, UniProt P62813+P63138, E164G/K131D); assay: Patch clamp, HEK293, double mutant α1β2 GABAAR; details: HEK293, read-out: Glutamate potentiation of GABA currents, % of control, normalized to wild-type α1β2
T1 construct: expressed in transfected cells; host or cells: HEK293
T1 sequence (P62813 28-455 K131D/E164G): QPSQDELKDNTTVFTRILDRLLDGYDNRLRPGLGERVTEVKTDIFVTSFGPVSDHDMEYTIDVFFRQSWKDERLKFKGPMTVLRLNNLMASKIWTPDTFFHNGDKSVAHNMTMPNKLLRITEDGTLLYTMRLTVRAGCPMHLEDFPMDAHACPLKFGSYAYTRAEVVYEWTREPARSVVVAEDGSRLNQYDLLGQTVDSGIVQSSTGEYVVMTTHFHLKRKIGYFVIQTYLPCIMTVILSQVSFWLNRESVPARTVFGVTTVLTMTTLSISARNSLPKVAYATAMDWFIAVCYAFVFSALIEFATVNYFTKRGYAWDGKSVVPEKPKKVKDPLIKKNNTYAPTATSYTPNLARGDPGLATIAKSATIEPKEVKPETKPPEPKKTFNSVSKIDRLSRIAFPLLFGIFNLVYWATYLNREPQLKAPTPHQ
T1 sequence (P63138 25-474 limits assumed): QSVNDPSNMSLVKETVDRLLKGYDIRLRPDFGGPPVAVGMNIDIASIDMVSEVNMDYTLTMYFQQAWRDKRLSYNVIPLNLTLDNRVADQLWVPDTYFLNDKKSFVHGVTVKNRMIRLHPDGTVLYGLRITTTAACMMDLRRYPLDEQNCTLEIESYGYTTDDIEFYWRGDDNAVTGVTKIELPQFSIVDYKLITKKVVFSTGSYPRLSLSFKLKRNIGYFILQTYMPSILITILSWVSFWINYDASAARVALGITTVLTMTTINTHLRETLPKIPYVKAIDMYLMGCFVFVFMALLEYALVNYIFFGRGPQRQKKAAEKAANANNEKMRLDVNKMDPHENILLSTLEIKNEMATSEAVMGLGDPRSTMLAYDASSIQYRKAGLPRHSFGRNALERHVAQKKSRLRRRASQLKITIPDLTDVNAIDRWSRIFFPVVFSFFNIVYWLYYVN
From the text: (§1) The subunits are color-coded individually. The boxed regions are further enlarged in the middle panels, highlighting the predicted glutamate binding pocket in the α+ and β− interface, just below the loop C. […] Relative potentiation was obtained by normalizing potentiation observed in the mutated receptor to that in the respective wild-type receptor.
(§2) To further investigate the characteristics of these four residues, double amino acid substitutions were introduced at residue pairs that are located at different (α1β2) subunits (Fig. 3f and Supplementary Fig. S6b).
(§3) HEK293 cells were cultured in DMEM (Invitrogen) supplemented with 10% fetal bovine serum. Cells were grown to 40–60% confluence and transiently transfected using Lipofectamine 2000 (Invitrogen) with 1:0.5–1 plasmid/lipid ratio. Cells were transfected with a pBK-CMV expression vector containing a rat recombinant GABAAR α, β or γ subunits. Co-transections were done with a plasmid ratio of 1:1 αβ and 2:2:1 for αβγ subunit combinations, respectively. pcDNA3.1-GFP was also co-transfected along with GABAAR subunits as a transfected marker in order to facilitate the visualization of the transfected cells during electrophysiological experiments. Cells were re-plated on glass coverslips after 15–20 h transfection and were cultured for an additional 15–24 h before whole-cell patch-clamp recordings.
(§4) The site-directed mutagenesis of α, β or γ subunits were performed by using the QuikChange method (Stratagene). […] Wild-type or mutant subunits were transfected in HEK293 cells and subjected to electrophysiology examinations.
(§5) Whole-cell patch-clamp recordings were performed under voltage-clamp mode using an Axopatch 200B or 1D patch-clamp amplifier (Molecular Devices) on HEK293 cells and cultured neurons. Whole-cell currents were recorded at a holding potential of −60 mV, and signals were filtered at 2 kHz, digitized at 10 kHz (Digidata 1322 A). Recording pipettes (3–5 MΩ) were filled with the intracellular solution that contained (mM): CsCl 140, HEPES 10, Mg-ATP 4, QX-314 5, pH 7.20; osmolarity, 290–295 mOsm. BAPTA (10 mM) was added in the intracellular solution.

[1] = target: T2, αK104βE181G GABAAR (α1 K104D and β2 E181G) (Rattus norvegicus, UniProt P62813+P63138, E206G/K131D); assay: Patch clamp, HEK293, double mutant α1β2 GABAAR; details: HEK293, read-out: Glutamate potentiation of GABA currents, % of control, normalized to wild-type α1β2
T2 construct: expressed in transfected cells; host or cells: HEK293
T2 sequence (P62813 28-455 K131D): as the sequence (P62813 28-455 K131D/E164G) above, with G137E counted along it
T2 sequence (P63138 26-474 E206G): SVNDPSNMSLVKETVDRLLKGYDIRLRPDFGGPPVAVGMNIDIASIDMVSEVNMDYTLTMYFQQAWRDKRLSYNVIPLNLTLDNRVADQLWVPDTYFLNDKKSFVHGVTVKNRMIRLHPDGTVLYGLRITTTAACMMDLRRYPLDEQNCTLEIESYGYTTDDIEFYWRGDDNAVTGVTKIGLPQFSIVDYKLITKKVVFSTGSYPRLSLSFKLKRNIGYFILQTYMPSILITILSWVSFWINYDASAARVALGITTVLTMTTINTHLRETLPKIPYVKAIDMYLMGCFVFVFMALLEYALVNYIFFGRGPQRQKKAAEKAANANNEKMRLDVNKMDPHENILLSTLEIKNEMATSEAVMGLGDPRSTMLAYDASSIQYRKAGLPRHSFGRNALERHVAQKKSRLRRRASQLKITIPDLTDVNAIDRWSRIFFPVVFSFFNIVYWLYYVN
From the text: as §1, §2, §3, §4, §5

αE137GβE181G GABAAR = target: T3, αE137GβE181G GABAAR (Rattus norvegicus, UniProt P62813+P63138, E164G/E206G); assay: Patch clamp, HEK293, double mutant α1β2 GABAAR; details: HEK293, read-out: Glutamate potentiation of GABA currents, % of control, normalized to wild-type α1β2
T3 construct: expressed in transfected cells; host or cells: HEK293
T3 sequence (P62813 28-455 E164G): as the sequence (P62813 28-455 K131D/E164G) above, with D104K counted along it
T3 sequence (P63138 26-474 E206G): as the sequence (P63138 26-474 E206G) above
From the text: as §1, §2, §3, §4, §5

α1K155Dβ2γ2E168K GABAAR = target: T4, α1K155Dβ2γ2E168K GABAAR (Rattus norvegicus, UniProt P18508+P62813+P63138, E206K/K182D); assay: Patch clamp, HEK293, mutant GABAAR
T4 construct: expressed in transfected cells; host or cells: HEK293
T4 sequence (P62813 28-455 K182D): as the sequence (P62813 28-455 K131D/E164G) above, with D104K, G137E, K155D counted along it
T4 sequence (P63138 26-474, stated change not applied): as the sequence (P63138 26-474 E206G) above, with G181E counted along it
T4 sequence (P18508 39-466 E206K): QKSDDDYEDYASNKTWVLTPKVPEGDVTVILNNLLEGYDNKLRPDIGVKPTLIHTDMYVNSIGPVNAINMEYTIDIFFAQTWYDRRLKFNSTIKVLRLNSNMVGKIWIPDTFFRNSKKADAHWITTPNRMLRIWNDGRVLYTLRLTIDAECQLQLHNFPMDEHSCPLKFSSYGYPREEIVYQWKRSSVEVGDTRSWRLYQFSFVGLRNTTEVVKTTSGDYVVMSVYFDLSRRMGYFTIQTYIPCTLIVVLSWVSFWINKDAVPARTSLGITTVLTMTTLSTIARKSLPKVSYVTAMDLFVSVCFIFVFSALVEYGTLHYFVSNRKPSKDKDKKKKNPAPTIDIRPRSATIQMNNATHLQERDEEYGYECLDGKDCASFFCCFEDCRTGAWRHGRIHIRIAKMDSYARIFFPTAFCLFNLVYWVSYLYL
Procedure: as §3, §4
as §5, with “solution. The coverslips were continuously superfused with the extracellular solution containing (mM): NaCl 140, KCl 5.4, HEPES 10, MgCl2 1.0, CaCl2 1.3, glucose 20, pH 7.4; osmolarity, 305–315 mOsm.” for “solution.”

[2] = target: T5, α1β2E181Gγ2 GABAAR with γ2 R197E mutation (Rattus norvegicus, UniProt P18508+P62813+P63138, E206G/R235E); assay: Patch clamp, HEK293, mutant GABAAR
T5 construct: expressed in transfected cells; host or cells: HEK293
T5 sequence (P62813 28-455): as the sequence (P62813 28-455 K131D/E164G) above, with D104K, G137E counted along it
T5 sequence (P63138 26-474 E206G): as the sequence (P63138 26-474 E206G) above
T5 sequence (P18508 39-466 R235E): as the sequence (P18508 39-466 E206K) above, with K168E, R197E counted along it
Procedure: as §3, §4
as §5, with “solution. The coverslips were continuously superfused with the extracellular solution containing (mM): NaCl 140, KCl 5.4, HEPES 10, MgCl2 1.0, CaCl2 1.3, glucose 20, pH 7.4; osmolarity, 305–315 mOsm.” for “solution.”

αK155Dβ GABAAR = target: T6, αK155Dβ GABAAR (Rattus norvegicus, UniProt P62813+P63138, K182D); assay: Patch clamp, HEK293, mutant α1β2 GABAAR; details: HEK293, read-out: Glutamate potentiation of GABA currents, % of control, normalized to wild-type α1β2
T6 construct: expressed in transfected cells; host or cells: HEK293
T6 sequence (P62813 28-455 K182D): as the sequence (P62813 28-455 K131D/E164G) above, with D104K, G137E, K155D counted along it
T6 sequence (P63138 26-474): as the sequence (P63138 26-474 E206G) above, with G181E counted along it
Procedure: as §1, §3, §4
as §5, with “solution. The coverslips were continuously superfused with the extracellular solution containing (mM): NaCl 140, KCl 5.4, HEPES 10, MgCl2 1.0, CaCl2 1.3, glucose 20, pH 7.4; osmolarity, 305–315 mOsm. […] Dose–response curves were created by fitting data to Hill equation: I = Imax/[1 + (EC50/[A])^n], where I is the current, Imax is the maximum current, [A] is a given concentration of agonist, n is the Hill coefficient. […] All experiments were performed at room temperature.” for “solution.”

αE137Gβ GABAAR = target: T7, αE137Gβ GABAAR (Rattus norvegicus, UniProt P62813+P63138, E164G); assay: Patch clamp, HEK293, mutant α1β2 GABAAR; details: HEK293, read-out: Glutamate potentiation of GABA currents, % of control, normalized to wild-type α1β2
T7 construct: expressed in transfected cells; host or cells: HEK293
T7 sequence (P62813 28-455 E164G): as the sequence (P62813 28-455 K131D/E164G) above, with D104K counted along it
T7 sequence (P63138 26-474): as the sequence (P63138 26-474 E206G) above, with G181E counted along it
Procedure: as §1, §3, §4
as §5, with “solution. The coverslips were continuously superfused with the extracellular solution containing (mM): NaCl 140, KCl 5.4, HEPES 10, MgCl2 1.0, CaCl2 1.3, glucose 20, pH 7.4; osmolarity, 305–315 mOsm. […] Dose–response curves were created by fitting data to Hill equation: I = Imax/[1 + (EC50/[A])^n], where I is the current, Imax is the maximum current, [A] is a given concentration of agonist, n is the Hill coefficient. […] All experiments were performed at room temperature.” for “solution.”

αβE181G GABAAR = target: T8, αβE181G GABAAR (Rattus norvegicus, UniProt P62813+P63138, E206G); assay: Patch clamp, HEK293, mutant α1β2 GABAAR; details: HEK293, read-out: Glutamate potentiation of GABA currents, % of control, normalized to wild-type α1β2
T8 construct: expressed in transfected cells; host or cells: HEK293
T8 sequence (P62813 28-455): as the sequence (P62813 28-455 K131D/E164G) above, with D104K, G137E counted along it
T8 sequence (P63138 26-474 E206G): as the sequence (P63138 26-474 E206G) above
Procedure: as §1, §3, §4
as §5, with “solution. The coverslips were continuously superfused with the extracellular solution containing (mM): NaCl 140, KCl 5.4, HEPES 10, MgCl2 1.0, CaCl2 1.3, glucose 20, pH 7.4; osmolarity, 305–315 mOsm. […] Dose–response curves were created by fitting data to Hill equation: I = Imax/[1 + (EC50/[A])^n], where I is the current, Imax is the maximum current, [A] is a given concentration of agonist, n is the Hill coefficient. […] All experiments were performed at room temperature.” for “solution.”

αK104Dβ GABAAR = target: T9, αK104Dβ GABAAR (Rattus norvegicus, UniProt P62813+P63138, K131D); assay: Patch clamp, HEK293, mutant α1β2 GABAAR; details: HEK293, read-out: Glutamate potentiation of GABA currents, % of control, normalized to wild-type α1β2
T9 construct: expressed in transfected cells; host or cells: HEK293
T9 sequence (P62813 28-455 K131D): as the sequence (P62813 28-455 K131D/E164G) above, with G137E counted along it
T9 sequence (P63138 26-474): as the sequence (P63138 26-474 E206G) above, with G181E counted along it
Procedure: as §1, §3, §4
as §5, with “solution. The coverslips were continuously superfused with the extracellular solution containing (mM): NaCl 140, KCl 5.4, HEPES 10, MgCl2 1.0, CaCl2 1.3, glucose 20, pH 7.4; osmolarity, 305–315 mOsm. […] Dose–response curves were created by fitting data to Hill equation: I = Imax/[1 + (EC50/[A])^n], where I is the current, Imax is the maximum current, [A] is a given concentration of agonist, n is the Hill coefficient. […] All experiments were performed at room temperature.” for “solution.”

Structure (SMILES): N[C@@H](CCC(=O)O)C(=O)O [glutamate, Glutamate]
- activity at 100 µM (αK104D,E137Gβ GABAAR; glutamate 100 μM): 17.3 ± 12.9%
- activity at 1000 µM (αK104D,E137Gβ GABAAR; glutamate 1 mM): 45.9 ± 20.9%
- activity at 100 µM ([1]; glutamate 100 μM): 6.6%
- activity at 1000 µM ([1]; glutamate 1 mM): 27.4 ± 12.6%
- activity at 100 µM (αE137GβE181G GABAAR; glutamate 100 μM): 9.2 ± 3%
- activity at 1000 µM (αE137GβE181G GABAAR; glutamate 1 mM): 16.2 ± 1.3%
- restored potentiation, % of wild-type α1β2γ2 (α1K155Dβ2γ2E168K GABAAR; 100 μM glutamate): 71.8 ± 14.7%
- restored potentiation, % of wild-type α1β2γ2 (α1K155Dβ2γ2E168K GABAAR; 1 mM glutamate): 76.4 ± 10%
- restored potentiation, % of wild-type α1β2γ2 ([2]; Glu 100 μM): 76.6 ± 10.4%
- restored potentiation, % of wild-type α1β2γ2 ([2]; Glu 1 mM): 84.5 ± 16.9%
- activity at 100 µM (αK155Dβ GABAAR; Glu 100 μM): 76.3 ± 10.5%
- activity at 1000 µM (αK155Dβ GABAAR; Glu 1 mM): 90.1 ± 11.3%
- activity at 100 µM (αE137Gβ GABAAR; Glu 100 μM): 109 ± 30.2%
- activity at 1000 µM (αE137Gβ GABAAR; Glu 1 mM): 88.4 ± 5.9%
- activity at 100 µM (αβE181G GABAAR; Glu 100 μM): 51.2 ± 9.5%
- activity at 1000 µM (αβE181G GABAAR; Glu 1 mM): 50.6 ± 8.4%
- activity at 100 µM (αK104Dβ GABAAR; Glu 100 μM): 48.8 ± 9.5%
- activity at 1000 µM (αK104Dβ GABAAR; Glu 1 mM): 94.7 ± 20.7%
